This is an account of results in US20250304538A1, “PROCESS OF PREPARING REMIBRUTINIB SUBSTANTIALLY FREE OF NITROSAMINE IMPURITY” (NOVARTIS AG, priority 2024, published 2025).

Structures are written as SMILES. Entries after “also recorded” stand apart in the source; their conditions may differ.

The test system of data set [1] is Salmonella typhimurium strains TA98, TA100, TA1535 and TA1537. Description: Enhanced Ames Test (EAT), pre-incubation method, Salmonella strains. Type of data set: cell-based. The procedure: N-(3-(6-amino-5-(2(methyl)(nitroso)amino)ethoxy)pyrimidin-4-yl)-5-fluoro-2-methylphenyl)-4-cyclopropyl-2-fluorobenzamide was evaluated in the EAT performed under GLP following the EMA and FDA guidance (2023) for the EAT conditions for N-nitrosamines.
In this study N-(3-(6-amino-5-(2(methyl)(nitroso)amino)ethoxy)pyrimidin-4-yl)-5-fluoro-2-methylphenyl)-4-cyclopropyl-2-fluorobenzamide was evaluated for mutations in Salmonella typhimurium strains TA98, TA100, TA1535 and TA1537 and Escherichia coli strain WP2 uvrA pKM101, both in the absence and presence of 30% rat and hamster metabolic activation (β-naphthoflavone/phenobarbital-induced rat and hamster liver post-mitochondrial S-9 fraction). The test used pre-incubation method (30 minutes). N-(3-(6-amino-5-(2(methyl)(nitroso)amino)ethoxy)pyrimidin-4-yl)-5-fluoro-2-methylphenyl)-4-cyclopropyl-2-fluorobenzamide was formulated in dimethyl sulfoxide (DMSO) at concentrations of 5, 16, 50, 160, 500, 1600 and 5000 μg/plate.

Data set [2] in a line: Accelerated predictive stability (APS) of LOU064 drug substance, open dish. The format is physicochemical. Particulars: all APS open dish conditions. As to the method:
In order to assess the stability behavior of the nitrosamine impurity (N-(3-(6-amino-5-(2(methyl)(nitroso)amino)ethoxy)pyrimidin-4-yl)-5-fluoro-2-methylphenyl)-4-cyclopropyl-2-fluorobenzamide) in LOU064 drug substance, an accelerated predictive stability (APS) was performed.
A statistical based approach, Accelerated Predictive Stability (APS), using the humidity modified Arrhenius equation [Waterman and al., International Journal of Pharmaceutics 293 (1-2), 101-125 (2005)] is applied to understand stability behavior and predict the retest period. […] Short studies are conducted on open dish samples of representative batch (es) of drug substance at accelerated conditions using a wide range of temperatures and humidity with the goal of reaching the specification limit for the identified retest period limiting attributes at each condition as detailed below. […] The humidity corrected Arrhenius equation reflects both the influence of the temperature, and the moisture on the kinetics of the degradation product formation. The resulting open-dish data are fitted to a humidity-corrected Arrhenius equation^1 using ASAPprime® (current version 6.0): […]
3 batches of LOU064 drug substance were placed in open dish under the protocol summarized below:
(§1) The pulled samples were analyzed by HPLC-MS as per method described in example 1 and reported below in tables 9 and 10.

Data set [3] can be described thus: APS of LOU064 drug substance, closed container with or without nitrogen purge. To be noted: 60-80 °C, up to 27 days. The format is physicochemical. As to the method: Samples of batches of LOU064 drug substance were prepared in duplicated in closed container, with one sample being purged with nitrogen and the other not.
as §1

A short description of data set [4]: Stability of intermediate F8: nitrosamine content overtime (air exposure, storage). Type of data set: physicochemical. Particulars: upon exposure to the air or upon storage.
Method: • Limit-test by LC-MS (SIM mode), AJS-ES, positive mode, SIM Ion: 483.2 [M+H]+ • Column: YMC-Triart C18, 100×3.0 mm, particle size 1.9 μm, 12 nm • Mobile phase A: Dissolve 0.315 g of Ammonium formate in 1000 mL of water, add 0.5 mL of formic acid • Mobile phase B: Methanol • Sample solvent: Methanol+0.2% (v/v) Formic acid • Sample solution: approx. 100 mg of the sample in 20 mL • Flow: 0.6 mL/min • Injection volume: 3 μL • Autosampler cooled, 8° C. • Column temperature. 80° C.
Same method was used to determine the level of nitrosamine content in intermediate F8, in salts or in solvate of LOU064.
The content of nitrosamine in intermediate F8 was determined using method described in Example 1.

As to `CN(CCc1ccccc1)N=O` [MNPA, N-methyl-N-nitroso-(2-phenylethyl)amine, reference compound], in data set [1] (strain TA98, presence of hamster S-9), the “Increases (mutations)” value is “up to 1.9”.

Turning to `Cc1c(NC(=O)c2ccc(C3CC3)cc2F)cc(F)cc1-c1ncnc(N)c1OCCN(C)N=O` [N-(3-(6-amino-5-(2(methyl)(nitroso)amino)ethoxy)pyrimidin-4-yl)-5-fluoro-2-methylphenyl)-4-cyclopropyl-2-fluorobenzamide], the mutagenicity result in data set [1] (in the presence of rat S-9) and in data set [1] (without metabolic activation) was “not mutagenic” each time. Besides, the “Enhanced Ames Test (EAT) outcome” value in data set [1] (overall conclusion of the EAT) was “positive; also recorded: mutagenic under sensitive metabolic conditions”. In addition, the “increases in revertant numbers” value in data set [1] (strain TA100, presence of hamster S-9) came out at 2 fold; in data set [1] (strain TA1535, presence of hamster S-9), 3 fold.

As for `CCN(CC)N=O` [NDEA, N-nitrosodiethylamine, reference compound], in data set [1] (strain TA100, presence of 30% rat S-9), the induced mutations was above 2 fold.

With `C=CC(=O)N(C)CCOc1c(N)ncnc1-c1cc(F)cc(NC(=O)c2ccc(C3CC3)cc2F)c1C` [LOU064 drug substance, N-(3-(6-Amino-5-(2-(N-methylacrylamido)ethoxy)pyrimidin-4-yl)-5-fluoro-2-methylphenyl)-4-cyclopropyl-2-fluorobenzamide], in data set [2], the “stability behavior of the nitrosamine impurity (in words)” value is “stable”. For the same compound, in data set [3], the “nitrosamine, stored closed under nitrogen versus closed without nitrogen (in words)” value was “no difference observed beyond analytical variability”.

Take `CNCCOc1c(N)ncnc1-c1cc(F)cc(NC(=O)c2ccc(C3CC3)cc2F)c1C` [F8]: the “content of nitrosamine in intermediate F8 (trend)” value in data set [4] is “increased overtime”.
